Test results as given in US7557137B2, “Gamma-lactams as beta-secretase inhibitors” (Bristol-Myers Squibb Company, priority 2002, dated 2009).

Biological target: T1, BACE enzyme (Homo sapiens, UniProt P56817)
T1 construct: the catalytic domain, appended by a C-terminal poly-histidine tag, is secreted out into the cellular medium; made in house; host or cells: Drosophila melanogaster S2 cells
Assay: BACE enzyme inhibition, fluorescence-quenched peptide substrate MCA-EVNLDAEFK(DNP)
Assay type: biochemical
Details: 50 mM acetate, pH 4.5, 0.25 mg/ml bovine serum albumin, 2.5% DMSO; read-out: Activity Rating (based on IC50 values)
From the text: There are a number of methods by which inhibitors of the BACE enzyme can be identified experimentally. The enzyme can be obtained from membrane samples from natural tissues or cultured cells or can be expressed recombinantly in a host cell by well known methods of molecular biology. […] The enzymatic activity and/or ligand binding capability of the enzyme can be assessed within these membrane samples, or the enzyme can be purified to varying extents. As an illustrative example, the nucleic acid sequence encoding the pro and catalytic domains of human BACE can be appended on the 5′ end with an untranslated and signal sequence from the gene for acetylcholinesterase, and on the 3′ end with a sequence encoding a poly-histidine tag. This cDNA can then be expressed in Drosophila melanogaster S2 cells in which the signal and pro sequences of the transcribed/translated protein are removed by cellular proteases and the catalytic domain, appended by a C-terminal poly-histidine tag, is secreted out into the cellular medium. The enzyme can then be purified from the culture medium by nickel affinity chromatography by methods well known to those trained in the art [Mallender, W. et al., (2001) “Characterization of recombinant, soluble beta-secretase from an insect cell expression system.” Mol. Pharmacol. 59: 619-626]. Similar strategies for expressing and purifying various forms of BACE in bacterial, mammalian and other cell types would be known to one skilled in the art.
The enzyme thus obtained can be put in contact with a test compound and with an appropriate substrate on which enzyme-mediated peptide bond hydrolysis is known to occur. The ability of the test compound to diminish the rate of substrate hydrolysis can then be quantified as a measure of inhibition potency. Appropriate substrates can be prepared as peptides, proteins, or chemically modified versions of peptides or proteins, that contain an amino acid sequence that is recognized as a substrate by the enzyme. For example, the amino acid sequence immediately proximal to the beta-cleavage site within Swedish mutant APP is known to be recognized as a substrate for BACE. […] Longer peptide and protein substrates can also be designed by extending the amino acid composition on the N-terminal, the C-terminal, or both ends.
In one known application of (SEQ. ID. NO.:1), X is a 7-methoxycoumarin-4-acetyl (MCA) group and Y is a dinitrophenyl (DNP) group [Marcinkeviciene, J. et al., (2001) “Mechanism of inhibition of beta-site amyloid precursor protein-cleaving enzyme (BACE) by a statine-based peptide.” J. Biol. Chem. 276: 23790-23794]. When this peptide is intact, the natural fluorescence of the MCA group is quenched by its proximity to the DNP group. […] The increase in fluorescence intensity that accompanies enzyme-mediated peptide hydrolysis can be measured as a function of time to quantify the velocity of enzyme catalysis. In a typical assay system the BACE enzyme is diluted into a buffer system composed of 50 mM acetate, pH 4.5 containing 0.25 mg/ml bovine serum albumin. To this is added neat dimethyl sulfoxide (DMSO) or a stock solution of test compound dissolved in DMSO so that the final amount of DMSO in all assays is held constant at 2.5% (v:v). The enzymatic reaction is then initiated by addition of a stock solution of the substrate peptide to a known concentration. The fluorescence increase with time after substrate addition is monitored with an appropriate fluorescence detection instrument, such as a microplate reader or spectrofluorometer. The slope of the signal vs. time plot (progress curve) for samples to which only DMSO was added is taken as a measure of the uninhibited velocity and represents 100% enzymatic activity.

T1 sequence (P56817 75-416 limits assumed): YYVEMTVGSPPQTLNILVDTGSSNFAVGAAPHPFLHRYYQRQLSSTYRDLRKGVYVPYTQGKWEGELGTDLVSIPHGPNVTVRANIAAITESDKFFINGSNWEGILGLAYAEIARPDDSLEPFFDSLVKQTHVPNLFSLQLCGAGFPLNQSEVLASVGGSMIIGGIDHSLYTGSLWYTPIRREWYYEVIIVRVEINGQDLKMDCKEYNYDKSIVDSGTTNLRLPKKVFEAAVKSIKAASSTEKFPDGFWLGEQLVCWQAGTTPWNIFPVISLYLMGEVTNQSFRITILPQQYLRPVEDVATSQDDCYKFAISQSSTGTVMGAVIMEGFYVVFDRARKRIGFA

| Compound | IC50 |
| --- | --- |
| CCC(=O)N[C@]1([C@@H](C)CC)CCN([C@@H](CCc2ccccc2)C(=O)N[C@@H](Cc2ccccc2)[C@H](O)CNCc2cccc(OC)c2)C1=O [Example 10, (2S)-2-(3(S)-propionylamino-3-((S)-sec-butyl)-2-oxo-pyrrolidin-1-yl)-N-[(1S,2R)-1-benzyl-2-hydroxy-3-(3-methoxy-benzylamino)-propyl]-4-phenyl-butyramide] | < 0.1 µM |
| CC[C@H](C)[C@@]1(NC(C)=O)CCN([C@@H](CCc2ccccc2)C(=O)N[C@@H](Cc2ccccc2F)[C@H](O)CNCc2cccc(OC)c2)C1=O [Example 11, (2S)-2-(3(S)-acetylamino-3-((S)-sec-butyl)-2-oxo-pyrrolidin-1-yl)-N-[(1S,2R)-1-(2-fluorobenzyl)-2-hydroxy-3-(3-methoxy-benzylamino)-propyl]-4-phenyl-butyramide] | 0.1 to 1 µM |
| CC[C@H](C)[C@@]1(NC(C)=O)CCN([C@@H](CCc2ccccc2)C(=O)N[C@@H](Cc2ccccc2F)[C@H](O)CNCc2cccc(Cl)c2)C1=O [Example 12, (2S)-2-(3(S)-acetylamino-3-((S)-sec-butyl)-2-oxo-pyrrolidin-1-yl)-N-[(1S,2R)-1-(2-fluorobenzyl)-2-hydroxy-3-(3-chloro-benzylamino)-propyl]-4-phenyl-butyramide] | 0.1 to 1 µM |
| CCOC(=O)N[C@]1([C@@H](C)CC)CCN([C@@H](CCc2ccccc2)C(=O)N[C@@H](Cc2ccccc2)[C@@H](O)CNCc2cccc(OC)c2)C1=O [Example 13, (2S)-2-(3(S)-ethoxycarbonylamino-3-((S)-sec-butyl)-2-oxo-pyrrolidin-1-yl)-N-[(1S,2S)-1-benzyl-2-hydroxy-3-(3-methoxy-benzylamino)-propyl]-4-phenyl-butyramide] | 1 to 50 µM |
| CCCNC(=O)N[C@]1([C@@H](C)CC)CCN([C@@H](CCc2ccccc2)C(=O)N[C@@H](Cc2ccccc2)[C@H](O)CNCc2cccc(OC)c2)C1=O [Example 17, (2S)-2-(3(S)-propylureido-3-((S)-sec-butyl)-2-oxo-pyrrolidin-1-yl)-N-[(1S,2R)-1-benzyl-2-hydroxy-3-(3-methoxy-benzylamino)-propyl]-4-phenyl-butyramide] | 0.1 to 1 µM |
| CCNC(=O)N[C@]1([C@@H](C)CC)CCN([C@@H](CCc2ccccc2)C(=O)N[C@@H](Cc2ccccc2)[C@H](O)CNCc2cccc(OC)c2)C1=O [Example 18, (2S)-2-(3(S)-ethylureido-3-((S)-sec-butyl)-2-oxo-pyrrolidin-1-yl)-N-[(1S,2R)-1-benzyl-2-hydroxy-3-(3-methoxy-benzylamino)-propyl]-4-phenyl-butyramide] | < 0.1 µM |
| CC[C@H](C)[C@@]1(NC(=O)C(F)(F)F)CCN([C@@H](CCc2ccccc2)C(=O)N[C@@H](Cc2ccccc2)[C@H](O)CNCc2cccc(OC)c2)C1=O [Example 19, (2S)-2-(3(S)-(trifluoroacetyl)amino-3-((S)-sec-butyl)-2-oxo-pyrrolidin-1-yl)-N-[(1S,2R)-1-benzyl-2-hydroxy-3-(3-methoxy-benzylamino)-propyl]-4-phenyl-butyramide] | 0.1 to 1 µM |
| CC[C@H](C)[C@@]1(NC(=O)CCc2cnc[nH]2)CCN([C@@H](CCc2ccccc2)C(=O)N[C@@H](Cc2ccccc2)[C@H](O)CNCc2cccc(OC)c2)C1=O [Example 20, (2S)-2-(3(S)-(3-3H-imidazol-4-yl-propionylamino)-3-((S)-sec-butyl)-2-oxo-pyrrolidin-1-yl)-N-[(1S,2R)-1-benzyl-2-hydroxy-3-(3-methoxy-benzylamino)-propyl]-4-phenyl-butyramide] | 0.1 to 1 µM |
| CC[C@H](C)[C@@]1(NC(=O)CCO)CCN([C@@H](CCc2ccccc2)C(=O)N[C@@H](Cc2ccccc2)[C@H](O)CNCc2cccc(OC)c2)C1=O [Example 24, (2S)-2-(3(S)-(3-hydroxypropionylamino)-3-((S)-sec-butyl)-2-oxo-pyrrolidin-1-yl)-N-[(1S,2R)-1-benzyl-2-hydroxy-3-(3-methoxy-benzylamino)-propyl]-4-phenyl-butyramide] | < 0.1 µM |
| CC[C@H](C)[C@@]1(NC(=O)CCCO)CCN([C@@H](CCc2ccccc2)C(=O)N[C@@H](Cc2ccccc2)[C@H](O)CNCc2cccc(OC)c2)C1=O [Example 25, (2S)-2-(3(S)-(4-hydroxybutyrylamino)-3-((S)-sec-butyl)-2-oxo-pyrrolidin-1-yl)-N-[(1S,2R)-1-benzyl-2-hydroxy-3-(3-methoxy-benzylamino)-propyl]-4-phenyl-butyramide] | < 0.1 µM |
| CCC(C)[C@@]1(NS(=O)(=O)CC)CCN([C@@H](CCc2ccccc2)C(=O)N[C@@H](Cc2ccccc2)C(O)CNCc2cccc(OC)c2)C1=O (stereo partly drawn) [Example 26, (2S)-2-(3(S)-(ethylsulfonamido)-3-((S)-sec-butyl)-2-oxo-pyrrolidin-1-yl)-N-[(1S)-1-benzyl-2-hydroxy-3-(3-methoxy-benzylamino)-propyl]-4-phenyl-butyramide] | 1 to 50 µM |
| CCCS(=O)(=O)N[C@]1(C(C)CC)CCN([C@@H](CCc2ccccc2)C(=O)N[C@@H](Cc2ccccc2)C(O)CNCc2cccc(OC)c2)C1=O (stereo partly drawn) [Example 27, (2S)-2-(3(S)-(propylsulfonamido)-3-((S)-sec-butyl)-2-oxo-pyrrolidin-1-yl)-N-[(1S)-1-benzyl-2-hydroxy-3-(3-methoxy-benzylamino)-propyl]-4-phenyl-butyramide] | 1 to 50 µM |
| CC[C@H](C)[C@@]1(NC(C)=O)CCN([C@@H](CCc2ccccc2)C(=O)N[C@@H](Cc2ccccc2)[C@H](O)CNCc2cccc(Cl)c2)C1=O [Example 29, (2S)-2-(3(S)-acetylamino-3-((S)-sec-butyl)-2-oxo-pyrrolidin-1-yl)-N-[(1S,2R)-1-benzyl-2-hydroxy-3-(3-chloro-benzylamino)-propyl]-4-phenyl-butyramide] | < 0.1 µM |
| C#CCNC[C@@H](O)[C@H](Cc1ccccc1)NC(=O)[C@H](CCc1ccccc1)N1CC[C@](NC(C)=O)([C@@H](C)CC)C1=O [Example 30, (2S)-2-(3(S)-acetylamino-3-((S)-sec-butyl)-2-oxo-pyrrolidin-1-yl)-N-[(1S,2R)-1-benzyl-2-hydroxy-3-(propargylamino)-propyl]-4-phenyl-butyramide] | < 0.1 µM |
| CC[C@H](C)[C@@]1(NC(C)=O)CCN([C@@H](CCc2ccccc2)C(=O)N[C@@H](Cc2ccccc2)[C@H](O)CNCC2CC2)C1=O [Example 31, (2S)-2-(3(S)-acetylamino-3-((S)-sec-butyl)-2-oxo-pyrrolidin-1-yl)-N-[(1S,2R)-1-benzyl-2-hydroxy-3-(cyclopropylmethyl)amino-propyl]-4-phenyl-butyramide] | 0.1 to 1 µM |
| CC[C@H](C)[C@@]1(NC(C)=O)CCN([C@@H](CCc2ccccc2)C(=O)N[C@@H](Cc2ccccc2)[C@H](O)CNCc2cc(F)cc(F)c2)C1=O [Example 33, (2S)-2-(3(S)-acetylamino-3-((S)-sec-butyl)-2-oxo-pyrrolidin-1-yl)-N-[(1S,2R)-1-benzyl-2-hydroxy-3-(3,5-difluorobenzylamino)-propyl]-4-phenyl-butyramide] | < 0.1 µM |
| CC(=O)N[C@]1(CC(C)C)CCN([C@@H](CCc2ccccc2)C(=O)N[C@@H](Cc2ccccc2)[C@H](O)CNCc2ccccc2)C1=O [Example 35, 2-(3(S)-Acetylamino-3(S)-isobutyl-2-oxo-pyrrolidin-1-yl)-N-[(1S,2R)-1-benzyl-2-hydroxy-3-benzylamino-propyl]-4-phenyl-butyramide] | < 0.1 µM |
| CC(=O)N[C@]1(CC(C)C)CCN([C@@H](CCc2ccccc2)C(=O)N[C@@H](Cc2ccccc2)[C@H](O)CNCCC#N)C1=O [Example 37, 2-(3(S)-Acetylamino-3(S)-isobutyl-2-oxo-pyrrolidin-1-yl)-N-[(1S,2R)-1-benzyl-3-(2-cyano-ethylamino)-2-hydroxy-propyl]-4-phenyl-butyramide] | < 0.1 µM |
| COc1cccc(CNC[C@@H](O)[C@H](Cc2cc(F)cc(F)c2)NC(=O)[C@H](CCc2ccc3c(c2)OCO3)N2CC[C@@](CC3CC3)(NC(C)=O)C2=O)c1 [Example 39] | < 0.1 µM |
